Measurements reported in patent US8748700B2, “Control of AAD-1 monocot volunteers in fields of dicot crops” (Dow AgroSciences, LLC., priority 2009, dated 2014).

How the values were obtained:
[1] = system: volunteer conventional or transgenic maize lines; experiment: Control of volunteer maize in a field planted with AAD-maize using alternative herbicides (Table 6, herbicide options); format: in vivo; settings: for Herbicides option - Burndown/PRE: planted: any AAD-1 hybrid of the table
Source text: In an embodiment, volunteer transgenic maize lines (containing the Clear Field trait, Roundup Ready or other Glyphosate Tolerant Trait, Liberty Link Trait, Imidazolonine tolerant trait, or any stacked combination thereof) or volunteer conventional maize lines are controlled within a field of transgenic AAD maize (AAD-1) by the application of aryloxyphenoxypropionate herbicide (Fops) including, but not limited to; quizalofop, haloxyfop, fenoxaprop, fluazifop, et al., their stereospecific isomers or racemic mixtures, and esters, acid, or salts thereof. In addition, the Fops herbicide may be applied with another herbicide(s) to control the volunteer maize lines described above.
The application of a given herbicide can be made before planting at pre-emergence/burndown or post-emergence after planting to control the volunteer conventional or transgenic maize lines. Table 6 lists the herbicides to be used at the different stages of planting (pre-emergence or post-emergence) to control volunteer conventional or transgenic maize. At or about a 1× Field Rate concentration of herbicide would be applied, as either a tank mix or alone, to the field for both pre-emergent and post-emergent volunteer control.
The control of conventional maize plants or transgenic maize plants containing a herbicide tolerant expression cassette within a field of AAD transgenic maize (either stacked with other herbicide tolerant traits or alone) would be applicable for the control of a herbicide tolerant transgenic monocot plant (including, but not limited too; corn, rice, sugar cane, switch grass, turf grass species, sorghum, barley, wheat, and oats, and durum) within a field being planted with an AAD monocot crop (including, but not limited too; corn, rice, sugar cane, switch grass, turf grass species, sorghum, barley, wheat, and oats, and durum). The example described above, in which volunteer transgenic herbicide tolerant maize plants are controlled in a field planted with AAD transgenic maize, is illustrative of the invention and not intended to restrict the scope of this embodiment.

[2] = system: Transgenic Hi-II maize plants containing the AAD-1 and PAT expression cassette (3404); experiment: Post-emergent herbicide application on transgenic maize containing AAD-1 and PAT (pDAB3404), visual injury assessment; format: in vivo; settings: for Tolerance (−/+) 3404: 3404 = molecular stack of AAD-1 and PAT crossed with CP4 for glyphosate tolerance, V1-V3 stage, 1x Field Rate, visual injury after 14 days; for Comment (activity in words): applies to both WT and AAD-1 plants; for injury: WT and 3404 not distinguished
Protocol: Seed were planted into Metro Mix Media (Sun Gro Horticulture Inc., Bellevue, Wash.) and subirrigated with Hoagland's solution until wet, then allowed to gravity drain. Pots were placed in a glasshouse environment set to 27° C. until the germinated plants reached the V1-V3 growth stage. At or about, the V1-V3 growth stage, the maize plants were spayed using a track sprayer and a drop down nozzle calibrated to deliver a187 L/ha solution of herbicide at the 1× Field Rate (Table 7). After treatment the plants were placed in the greenhouse and scored via visual injury assessment after 14 days.

[3] = volunteer: CL Corn, planted: AAD-1 + PAT + AHAS
[4] = volunteer: CL Corn, planted: AAD-1 + PAT + GAT + ALS
[5] = volunteer: CL Corn, planted: AAD-1 + PAT + GT
[6] = volunteer: Conventional corn, planted: AAD-1 + PAT + AHAS
[7] = volunteer: Conventional corn, planted: AAD-1 + PAT + GAT + ALS
[8] = volunteer: Conventional corn, planted: AAD-1 + PAT + GT
[9] = volunteer: RR or GT Corn (text printed beside the CL Corn lines r30-r36)

What does the source list for `O=C(O)CNCP(=O)(O)O` [Glyphosate]?
Herbicides option - Burndown/PRE ([1]; volunteer: CL (or AHAS) + PAT): Glyphosate; Herbicides option - Burndown/PRE ([1]; volunteer: CL Corn): Glyphosate; Herbicides option - Burndown/PRE ([1]; volunteer: Conventional corn): Glyphosate; Herbicides option - Burndown/PRE ([1]; volunteer: GAT + ALS): Glyphosate; Herbicides option - Burndown/PRE ([1]; volunteer: LL Corn): Glyphosate

How did the “Tolerance (−/+) 3404” value [2] turn out when `CCSC(C)CC1CC(=O)C(/C(CC)=N/OC/C=C/Cl)=C(O)C1` (stereo not shown) [clethodim] was run?
Its value is “−”.

For `C[C@@H](Oc1ccc(Oc2ncc(Cl)cc2F)cc1)C(=O)O` [clodinafop], which “Tolerance (−/+) 3404” value [2] is on record?
The value was “+”.

`CCCCOC(=O)[C@@H](C)Oc1ccc(Oc2ccc(C#N)cc2F)cc1` [cyhalofop-butyl] was tested. Which “Tolerance (−/+) 3404” value [2] did it give?
Its value is “+”.

What does the source list for `COC(=O)C(C)Oc1ccc(Oc2ccc(Cl)cc2Cl)cc1` (stereo not shown) [diclofop-methyl]?
Tolerance (−/+) 3404 [2]: −; Comment (activity in words) [2]: Not active on grasses

How did the “Tolerance (−/+) 3404” value [2] turn out when `CCOC(=O)[C@@H](C)Oc1ccc(Oc2nc3ccc(Cl)cc3o2)cc1` [fenoxaprop-P-ethyl] was run?
The value was “+”.

How did the “Tolerance (−/+) 3404” value [2] turn out when `CCCCOC(=O)[C@@H](C)Oc1ccc(Oc2ccc(C(F)(F)F)cn2)cc1` [fluazifop-P-butyl] was run?
The value was “+”.

With `CP(=O)(O)CCC(N)C(=O)O` (stereo not shown) [glufosinate-ammonium] as the compound, how does the “Tolerance (−/+) 3404” value [2] read?
The value was “+”.

Which results are given for `CP(=O)(O)CCC(N)C(=O)O` (stereo not shown) [glufosinate]?
Herbicides option - POST ([1]; volunteer: CL (or AHAS) + GT, planted: AAD-1 + PAT): glufosinate; Herbicides option - POST ([1]; volunteer: CL (or AHAS) + GT, planted: AAD-1 + PAT + AHAS): glufosinate; Herbicides option - POST ([1]; volunteer: CL (or AHAS) + GT, planted: AAD-1 + PAT + GAT + ALS): glufosinate; Herbicides option - POST ([1]; volunteer: CL (or AHAS) + GT, planted: AAD-1 + PAT + GT): glufosinate; Herbicides option - Burndown/PRE ([1]; volunteer: CL (or AHAS) + GT): glufosinate; Herbicides option - Burndown/PRE ([1]; volunteer: CL (or AHAS) + PAT): glufosinate; Herbicides option - POST ([1]; volunteer: CL Corn, planted: AAD-1 + PAT): glufosinate; Herbicides option - POST [1, 3]: glufosinate; Herbicides option - POST [1, 4]: glufosinate; Herbicides option - POST [1, 5]: glufosinate; Herbicides option - Burndown/PRE ([1]; volunteer: CL Corn): glufosinate; Herbicides option - POST ([1]; volunteer: Conventional corn, planted: AAD-1 + PAT): glufosinate; Herbicides option - POST [1, 6]: glufosinate; Herbicides option - POST [1, 7]: glufosinate; Herbicides option - POST [1, 8]: glufosinate; Herbicides option - Burndown/PRE ([1]; volunteer: Conventional corn): glufosinate; Herbicides option - POST ([1]; volunteer: GAT + ALS, planted: AAD-1 + PAT): glufosinate; Herbicides option - POST ([1]; volunteer: GAT + ALS, planted: AAD-1 + PAT + AHAS): glufosinate; Herbicides option - POST ([1]; volunteer: GAT + ALS, planted: AAD-1 + PAT + GAT + ALS): glufosinate; Herbicides option - POST ([1]; volunteer: GAT + ALS, planted: AAD-1 + PAT + GT): glufosinate; Herbicides option - Burndown/PRE ([1]; volunteer: GAT + ALS): glufosinate; Herbicides option - Burndown/PRE [1, 9]: glufosinate; Herbicides option - POST ([1]; volunteer: RR or GT Corn, planted: AAD-1 + PAT): glufosinate; Herbicides option - POST ([1]; volunteer: RR or GT Corn, planted: AAD-1 + PAT + AHAS): glufosinate; Herbicides option - POST ([1]; volunteer: RR or GT Corn, planted: AAD-1 + PAT + GAT + ALS): glufosinate; Herbicides option - POST ([1]; volunteer: RR or GT Corn, planted: AAD-1 + PAT + GT): glufosinate

`CC(C)N.O=C(O)CNCP(=O)(O)O` [glyphosate-isopropylammonium] was tested. Which “Tolerance (−/+) 3404” value [2] did it give?
Its value is “+”.

How did the “Herbicides option - POST” value ([1]; volunteer: CL (or AHAS) + PAT, planted: AAD-1 + AHAS) turn out when `O=C(O)CNCP(=O)(O)O` [glyphosate] was run?
Its value is “glyphosate”.

What about the “Herbicides option - POST” value ([1]; volunteer: CL (or AHAS) + PAT, planted: AAD-1 + GAT + ALS) of the same compound?
Its value is “glyphosate”.

What about the “Herbicides option - POST” value ([1]; volunteer: CL (or AHAS) + PAT, planted: AAD-1 + GT) of the same compound?
The value was “glyphosate”.

And the “Herbicides option - POST” value ([1]; volunteer: CL (or AHAS) + PAT, planted: AAD-1 + PAT + AHAS)?
The value was “glyphosate”.

What about the “Herbicides option - POST” value ([1]; volunteer: CL (or AHAS) + PAT, planted: AAD-1 + PAT + GAT + ALS) of the same compound?
The value was “glyphosate”.

What about the “Herbicides option - POST” value ([1]; volunteer: CL (or AHAS) + PAT, planted: AAD-1 + PAT + GT) of the same compound?
Its value is “glyphosate”.

What about the “Herbicides option - POST” value ([1]; volunteer: CL Corn, planted: AAD-1 + AHAS) of the same compound?
The value was “glyphosate”.

What about the “Herbicides option - POST” value ([1]; volunteer: CL Corn, planted: AAD-1 + GAT + ALS) of the same compound?
The value was “glyphosate”.

What about the “Herbicides option - POST” value ([1]; volunteer: CL Corn, planted: AAD-1 + GT) of the same compound?
The value was “glyphosate”.

What about the “Herbicides option - POST” value [1, 3] of the same compound?
The value was “glyphosate”.

What about the “Herbicides option - POST” value [1, 4] of the same compound?
Its value is “glyphosate”.

What about the “Herbicides option - POST” value [1, 5] of the same compound?
The value was “glyphosate”.

And the “Herbicides option - POST” value ([1]; volunteer: Conventional corn, planted: AAD-1 + AHAS)?
The value was “glyphosate”.

What about the “Herbicides option - POST” value ([1]; volunteer: Conventional corn, planted: AAD-1 + GAT + ALS) of the same compound?
Its value is “glyphosate”.

And the “Herbicides option - POST” value ([1]; volunteer: Conventional corn, planted: AAD-1 + GT)?
The value was “glyphosate”.

What about the “Herbicides option - POST” value [1, 6] of the same compound?
Its value is “glyphosate”.

And the “Herbicides option - POST” value [1, 7]?
The value was “glyphosate”.

And the “Herbicides option - POST” value [1, 8]?
The value was “glyphosate”.

What about the “Herbicides option - POST” value ([1]; volunteer: LL Corn, planted: AAD-1 + AHAS) of the same compound?
The value was “glyphosate”.

What about the “Herbicides option - POST” value ([1]; volunteer: LL Corn, planted: AAD-1 + GAT + ALS) of the same compound?
Its value is “glyphosate”.

What about the “Herbicides option - POST” value ([1]; volunteer: LL Corn, planted: AAD-1 + GT) of the same compound?
Its value is “glyphosate”.

And the “Herbicides option - POST” value ([1]; volunteer: LL Corn, planted: AAD-1 + PAT + AHAS)?
The value was “glyphosate”.

And the “Herbicides option - POST” value ([1]; volunteer: LL Corn, planted: AAD-1 + PAT + GAT + ALS)?
The value was “glyphosate”.

And the “Herbicides option - POST” value ([1]; volunteer: LL Corn, planted: AAD-1 + PAT + GT)?
The value was “glyphosate”.

Which “Tolerance (−/+) 3404” value [2] does the source give for `COC(=O)[C@@H](C)Oc1ccc(Oc2ncc(C(F)(F)F)cc2Cl)cc1` [haloxyfop-methyl R] here?
The value was “+”.

How did the “Tolerance (−/+) 3404” value [2] turn out when `COCc1cnc(C2=NC(C)(C(C)C)C(=O)N2)c(C(=O)O)c1` (stereo not shown) [imazamox] was run?
Its value is “−”.

With `CC(C)C1(C)N=C(c2nc3ccccc3cc2C(=O)O)NC1=O` (stereo not shown) [imazaquin] as the compound, how does the “Tolerance (−/+) 3404” value [2] read?
Its value is “−/+”.

And the injury ([2]; @ 50 g ai/ha)?
Its injury is “Need higher than 50 g ai/ha rate (50% injury @”.

How did the “Tolerance (−/+) 3404” value [2] turn out when `CCc1cnc(C2=NC(C)(C(C)C)C(=O)N2)c(C(=O)O)c1` (stereo not shown) [imazethapyr] was run?
The value was “−/+”.

And the injury ([2]; @ 70 g ai/ha)?
The injury was “Need higher than 70 g ai/ha rate (50% injury @”.

For `C[n+]1ccc(-c2cc[n+](C)cc2)cc1` [paraquat], which “Herbicides option - Burndown/PRE” value ([1]; volunteer: CL (or AHAS) + GT) is on record?
Its value is “paraquat”.

What about the “Herbicides option - Burndown/PRE” value ([1]; volunteer: CL (or AHAS) + PAT) of the same compound?
The value was “paraquat”.

What about the “Herbicides option - Burndown/PRE” value ([1]; volunteer: CL Corn) of the same compound?
Its value is “paraquat”.

What about the “Herbicides option - Burndown/PRE” value ([1]; volunteer: Conventional corn) of the same compound?
The value was “paraquat”.

And the “Herbicides option - Burndown/PRE” value ([1]; volunteer: GAT + ALS + PAT)?
Its value is “paraquat”.

What about the “Herbicides option - Burndown/PRE” value ([1]; volunteer: GAT + ALS) of the same compound?
Its value is “paraquat”.

What about the “Herbicides option - Burndown/PRE” value ([1]; volunteer: GT + CL (or AHAS) + PAT) of the same compound?
The value was “paraquat”.

What about the “Herbicides option - Burndown/PRE” value ([1]; volunteer: GT + PAT) of the same compound?
The value was “paraquat”.

What about the “Herbicides option - Burndown/PRE” value ([1]; volunteer: LL Corn) of the same compound?
The value was “paraquat”.

And the “Herbicides option - Burndown/PRE” value [1, 9]?
Its value is “paraquat”.

For `CCc1cc(C)cc(CC)c1-c1c(OC(=O)C(C)(C)C)n2n(c1=O)CCOCC2` [pinoxaden], which “Tolerance (−/+) 3404” value [2] is on record?
Its value is “+/−”.

What about the “Comment (activity in words)” value [2] of the same compound?
Its value is “Not active but small amt of control on both WT”.

For `CC(Oc1ccc(Oc2cnc3cc(Cl)ccc3n2)cc1)C(=O)O` (stereo not shown) [quizalofop], which “Tolerance (−/+) 3404” value [2] is on record?
The value was “+”.

With `CCC/C(=N\OCC)C1=C(O)CC(CC(C)SCC)CC1=O` (stereo not shown) [sethoxydim] as the compound, how does the “Tolerance (−/+) 3404” value [2] read?
The value was “−”.

For `CCO/N=C(\CC)C1=C(O)CC(c2c(C)cc(C)cc2C)CC1=O` (stereo not shown) [tralkoxydim], which “Tolerance (−/+) 3404” value [2] is on record?
Its value is “−”.
